Data as given in paper PMC6789782, “Safety Pharmacological Evaluation of the Coffee Component, Caffeoylquinic Acid, and Its Metabolites, Using Ex Vivo and In Vitro Profiling Assays” (Pharmaceuticals, 2019).
Where two headings read alike, the source gives them in different places.

Key:
5-HT2B = 5-HT2B (Homo sapiens, UniProt P41595); assay: In vitro profiling, binding assay
Method: (§1) Binding and functional assays of CGAs with the proteins known to be pharmacological targets related to the CVS, CNS, and GI functions were conducted. […] In the binding assay, we measured the radiation activity of the solution containing filtered proteins that bound to the tested compound or high-affinity ligand, while in the functional assays, we measured the reaction product. The ability of the test compound to interact with the tested targets was measured as the inhibition of ligand binding to the target or reaction product production (% inhibition).

Adenosine A2A = Adenosine A2A (Homo sapiens, UniProt P29274); assay: In vitro profiling, binding assay
Method: as §1

Adrenergic α1A = biological target: T1, Adrenergic α1A (Rattus norvegicus, UniProt P43140); assay: In vitro profiling, binding assay
T1 sequence (P43140 1-466): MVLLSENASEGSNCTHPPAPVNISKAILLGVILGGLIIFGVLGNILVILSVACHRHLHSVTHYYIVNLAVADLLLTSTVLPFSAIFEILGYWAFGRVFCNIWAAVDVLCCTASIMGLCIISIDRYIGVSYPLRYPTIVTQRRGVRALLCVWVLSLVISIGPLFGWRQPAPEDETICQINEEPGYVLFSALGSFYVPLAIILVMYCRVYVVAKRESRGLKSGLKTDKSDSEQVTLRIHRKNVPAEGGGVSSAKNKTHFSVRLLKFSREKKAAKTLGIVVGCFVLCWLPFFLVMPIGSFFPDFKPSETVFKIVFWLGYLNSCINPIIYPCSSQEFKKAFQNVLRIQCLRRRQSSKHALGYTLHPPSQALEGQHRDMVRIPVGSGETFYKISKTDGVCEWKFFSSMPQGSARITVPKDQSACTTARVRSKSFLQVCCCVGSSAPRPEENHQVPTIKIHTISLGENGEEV
Method: as §1

Adrenergic β2 = Adrenergic β2 (Homo sapiens, UniProt P07550); assay: In vitro profiling, binding assay
Method: as §1

Cannabinoid CB1 = Cannabinoid CB1 (Homo sapiens, UniProt P21554); assay: In vitro profiling, binding assay
Method: as §1

[1] = biological target: T2, Cholecystokinin CCK1 (CCKA) (Homo sapiens, UniProt P32238); assay: In vitro profiling, binding assay
T2 sequence (P32238 1-428): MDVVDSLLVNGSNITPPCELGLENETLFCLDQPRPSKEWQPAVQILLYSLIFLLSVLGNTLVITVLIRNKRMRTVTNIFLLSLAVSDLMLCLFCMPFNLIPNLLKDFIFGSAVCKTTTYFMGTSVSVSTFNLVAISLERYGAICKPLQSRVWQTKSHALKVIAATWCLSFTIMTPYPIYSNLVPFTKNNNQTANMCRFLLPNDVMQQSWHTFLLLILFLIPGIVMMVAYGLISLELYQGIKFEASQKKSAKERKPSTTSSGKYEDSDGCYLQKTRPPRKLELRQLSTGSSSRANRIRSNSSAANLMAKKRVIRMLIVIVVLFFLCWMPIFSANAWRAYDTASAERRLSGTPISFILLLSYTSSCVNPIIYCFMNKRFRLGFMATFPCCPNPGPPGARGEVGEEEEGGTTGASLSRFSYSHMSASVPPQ
Method: as §1

Histamine H1 = Histamine H1 (Homo sapiens, UniProt P35367); assay: In vitro profiling, binding assay
Method: as §1

Histamine H2 = Histamine H2 (Homo sapiens, UniProt P25021); assay: In vitro profiling, binding assay
Method: as §1

Muscarinic M2 = biological target: T3, Muscarinic M2 (Homo sapiens, UniProt P08172); assay: In vitro profiling, binding assay
T3 sequence (P08172 1-466): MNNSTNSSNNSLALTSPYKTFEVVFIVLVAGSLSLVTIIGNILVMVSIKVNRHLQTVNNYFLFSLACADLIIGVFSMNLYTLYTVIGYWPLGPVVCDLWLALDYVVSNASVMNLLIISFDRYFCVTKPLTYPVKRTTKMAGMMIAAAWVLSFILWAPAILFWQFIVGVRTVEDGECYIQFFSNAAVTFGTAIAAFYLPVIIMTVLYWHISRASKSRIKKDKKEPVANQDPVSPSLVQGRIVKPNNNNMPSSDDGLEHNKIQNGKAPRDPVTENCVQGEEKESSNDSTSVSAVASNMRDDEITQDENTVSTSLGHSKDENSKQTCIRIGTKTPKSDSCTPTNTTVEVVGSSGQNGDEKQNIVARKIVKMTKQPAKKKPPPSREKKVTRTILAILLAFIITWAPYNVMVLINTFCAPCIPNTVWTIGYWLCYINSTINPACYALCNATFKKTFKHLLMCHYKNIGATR
Method: as §1

Opiate κ = Opiate κ (Homo sapiens, UniProt P41145); assay: In vitro profiling, binding assay
Method: as §1

[2] = biological target: Transporter, Dopamine (DAT) (Homo sapiens, UniProt Q01959); assay: In vitro profiling, binding assay
Method: as §1

[3] = biological target: Transporter, Norepinephrine (NET) (Homo sapiens, UniProt P23975); assay: In vitro profiling, binding assay
Method: as §1

Cyclooxygenase COX-1 = Cyclooxygenase COX-1 (Homo sapiens, UniProt P23219); assay: In vitro profiling, functional assay; assay type: biochemical
Method: as §1

[4] = biological target: T4, Peptidase, CTSG (Cathepsin G) (Homo sapiens, UniProt P08311); assay: In vitro profiling, functional assay; assay type: biochemical
T4 sequence (P08311 21-255): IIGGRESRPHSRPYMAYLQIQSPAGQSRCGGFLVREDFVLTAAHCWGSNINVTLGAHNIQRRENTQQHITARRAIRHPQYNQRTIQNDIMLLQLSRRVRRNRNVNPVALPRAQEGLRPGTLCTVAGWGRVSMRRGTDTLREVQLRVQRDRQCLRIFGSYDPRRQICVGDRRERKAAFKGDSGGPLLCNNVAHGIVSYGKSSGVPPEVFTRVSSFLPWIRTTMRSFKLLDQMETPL
Method: as §1

[5] = 30 µM, 5-HT2B, read-out: % Inhibition
[6] = 30 µM, Adenosine A2A, read-out: % Inhibition
[7] = 30 µM, Adrenergic α1A, read-out: % Inhibition
[8] = 30 µM, Adrenergic β2, read-out: % Inhibition
[9] = 30 µM, Cannabinoid CB1, read-out: % Inhibition
[10] = 30 µM, Cholecystokinin CCK1 (CCKA), read-out: % Inhibition
[11] = 30 µM, Histamine H2, read-out: % Inhibition
[12] = 30 µM, Muscarinic M2, read-out: % Inhibition
[13] = 30 µM, Opiate κ, read-out: % Inhibition
[14] = 30 µM, Transporter, Dopamine (DAT), read-out: % Inhibition
[15] = 30 µM, Transporter, Norepinephrine (NET), read-out: % Inhibition
[16] = 30 µM, Cyclooxygenase COX-1, read-out: % Inhibition
[17] = 30 µM, Peptidase, CTSG (Cathepsin G), read-out: % Inhibition

Sequence of Histamine H1 (P35367 whole entry): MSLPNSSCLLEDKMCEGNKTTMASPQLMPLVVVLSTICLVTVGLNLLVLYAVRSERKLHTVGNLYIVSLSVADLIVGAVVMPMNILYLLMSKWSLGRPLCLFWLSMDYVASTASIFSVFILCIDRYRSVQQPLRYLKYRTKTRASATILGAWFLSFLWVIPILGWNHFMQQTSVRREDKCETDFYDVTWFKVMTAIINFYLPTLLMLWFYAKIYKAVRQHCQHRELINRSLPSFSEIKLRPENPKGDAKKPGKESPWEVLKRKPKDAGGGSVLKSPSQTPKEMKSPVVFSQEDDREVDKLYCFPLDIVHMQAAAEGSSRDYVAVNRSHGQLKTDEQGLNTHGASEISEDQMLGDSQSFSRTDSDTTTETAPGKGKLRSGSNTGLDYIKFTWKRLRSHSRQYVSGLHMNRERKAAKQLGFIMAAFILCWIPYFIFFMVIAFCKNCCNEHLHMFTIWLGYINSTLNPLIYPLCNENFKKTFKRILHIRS
Sequence of Histamine H2 (P25021 whole entry): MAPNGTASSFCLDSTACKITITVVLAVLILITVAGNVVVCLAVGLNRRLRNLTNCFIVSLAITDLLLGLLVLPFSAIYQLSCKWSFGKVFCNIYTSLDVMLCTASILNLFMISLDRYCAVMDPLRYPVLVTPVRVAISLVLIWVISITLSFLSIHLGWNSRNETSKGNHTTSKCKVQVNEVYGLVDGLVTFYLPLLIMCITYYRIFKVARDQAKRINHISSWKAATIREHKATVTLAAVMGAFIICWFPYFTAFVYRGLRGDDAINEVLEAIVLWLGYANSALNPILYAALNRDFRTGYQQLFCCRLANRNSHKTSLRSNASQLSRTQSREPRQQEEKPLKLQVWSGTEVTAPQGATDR
Sequence of 5-HT2B (P41595 whole entry): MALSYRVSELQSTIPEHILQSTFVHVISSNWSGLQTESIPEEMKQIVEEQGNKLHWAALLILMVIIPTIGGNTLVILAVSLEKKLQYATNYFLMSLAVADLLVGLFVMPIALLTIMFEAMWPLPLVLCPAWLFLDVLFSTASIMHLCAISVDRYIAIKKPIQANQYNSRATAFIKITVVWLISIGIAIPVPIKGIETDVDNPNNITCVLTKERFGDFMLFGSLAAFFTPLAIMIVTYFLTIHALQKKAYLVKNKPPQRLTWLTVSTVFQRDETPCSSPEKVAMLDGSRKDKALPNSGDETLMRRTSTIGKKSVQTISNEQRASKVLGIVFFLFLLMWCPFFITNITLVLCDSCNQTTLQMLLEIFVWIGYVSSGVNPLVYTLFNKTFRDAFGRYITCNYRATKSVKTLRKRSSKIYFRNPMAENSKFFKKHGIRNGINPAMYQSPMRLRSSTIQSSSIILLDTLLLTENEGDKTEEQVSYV
Sequence of Transporter, Norepinephrine (NET) (P23975 whole entry): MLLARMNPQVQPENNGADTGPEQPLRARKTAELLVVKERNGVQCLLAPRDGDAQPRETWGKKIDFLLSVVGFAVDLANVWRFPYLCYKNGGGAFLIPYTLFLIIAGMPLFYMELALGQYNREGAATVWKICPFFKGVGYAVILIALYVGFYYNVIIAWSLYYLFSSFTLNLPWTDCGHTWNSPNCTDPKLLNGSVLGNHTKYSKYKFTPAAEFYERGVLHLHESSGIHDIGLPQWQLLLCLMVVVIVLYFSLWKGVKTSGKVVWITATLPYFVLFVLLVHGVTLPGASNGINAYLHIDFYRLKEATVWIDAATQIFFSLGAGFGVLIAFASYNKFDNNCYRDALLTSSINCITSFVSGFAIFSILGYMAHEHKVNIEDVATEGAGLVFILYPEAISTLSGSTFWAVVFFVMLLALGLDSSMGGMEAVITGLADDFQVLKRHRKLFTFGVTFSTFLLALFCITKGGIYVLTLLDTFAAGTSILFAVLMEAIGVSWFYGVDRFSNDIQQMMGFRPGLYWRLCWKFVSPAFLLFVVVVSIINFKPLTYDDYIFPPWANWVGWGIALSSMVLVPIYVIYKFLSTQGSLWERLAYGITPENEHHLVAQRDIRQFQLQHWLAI
Sequence of Cyclooxygenase COX-1 (P23219 24-599): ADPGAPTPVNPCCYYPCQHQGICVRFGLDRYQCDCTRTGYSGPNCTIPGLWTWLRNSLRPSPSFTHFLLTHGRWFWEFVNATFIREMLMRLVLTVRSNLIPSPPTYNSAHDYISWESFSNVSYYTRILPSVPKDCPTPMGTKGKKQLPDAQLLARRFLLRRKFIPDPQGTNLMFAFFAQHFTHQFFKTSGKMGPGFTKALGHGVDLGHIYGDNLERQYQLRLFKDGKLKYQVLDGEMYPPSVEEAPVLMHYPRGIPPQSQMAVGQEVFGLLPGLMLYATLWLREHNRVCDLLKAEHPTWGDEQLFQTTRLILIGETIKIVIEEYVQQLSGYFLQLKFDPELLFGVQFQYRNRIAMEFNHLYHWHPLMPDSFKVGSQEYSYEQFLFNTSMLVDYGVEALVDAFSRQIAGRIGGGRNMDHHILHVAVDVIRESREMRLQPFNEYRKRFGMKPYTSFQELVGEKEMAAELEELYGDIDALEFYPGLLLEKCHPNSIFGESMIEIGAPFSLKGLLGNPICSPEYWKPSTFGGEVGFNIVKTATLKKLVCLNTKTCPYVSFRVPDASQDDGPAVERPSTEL
Sequence of Cannabinoid CB1 (P21554 whole entry): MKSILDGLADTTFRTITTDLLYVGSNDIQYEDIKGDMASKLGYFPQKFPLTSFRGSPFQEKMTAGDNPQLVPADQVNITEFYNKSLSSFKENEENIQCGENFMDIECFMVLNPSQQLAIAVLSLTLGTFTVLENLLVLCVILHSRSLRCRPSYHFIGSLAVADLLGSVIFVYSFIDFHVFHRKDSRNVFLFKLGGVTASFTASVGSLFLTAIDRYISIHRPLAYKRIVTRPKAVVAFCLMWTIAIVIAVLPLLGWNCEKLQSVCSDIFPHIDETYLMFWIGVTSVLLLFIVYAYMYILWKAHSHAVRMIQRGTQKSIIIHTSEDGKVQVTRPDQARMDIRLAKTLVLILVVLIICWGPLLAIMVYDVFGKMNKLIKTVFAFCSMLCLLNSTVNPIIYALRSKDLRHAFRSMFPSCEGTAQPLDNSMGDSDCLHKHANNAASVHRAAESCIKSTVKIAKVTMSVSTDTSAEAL
Sequence of Transporter, Dopamine (DAT) (Q01959 whole entry): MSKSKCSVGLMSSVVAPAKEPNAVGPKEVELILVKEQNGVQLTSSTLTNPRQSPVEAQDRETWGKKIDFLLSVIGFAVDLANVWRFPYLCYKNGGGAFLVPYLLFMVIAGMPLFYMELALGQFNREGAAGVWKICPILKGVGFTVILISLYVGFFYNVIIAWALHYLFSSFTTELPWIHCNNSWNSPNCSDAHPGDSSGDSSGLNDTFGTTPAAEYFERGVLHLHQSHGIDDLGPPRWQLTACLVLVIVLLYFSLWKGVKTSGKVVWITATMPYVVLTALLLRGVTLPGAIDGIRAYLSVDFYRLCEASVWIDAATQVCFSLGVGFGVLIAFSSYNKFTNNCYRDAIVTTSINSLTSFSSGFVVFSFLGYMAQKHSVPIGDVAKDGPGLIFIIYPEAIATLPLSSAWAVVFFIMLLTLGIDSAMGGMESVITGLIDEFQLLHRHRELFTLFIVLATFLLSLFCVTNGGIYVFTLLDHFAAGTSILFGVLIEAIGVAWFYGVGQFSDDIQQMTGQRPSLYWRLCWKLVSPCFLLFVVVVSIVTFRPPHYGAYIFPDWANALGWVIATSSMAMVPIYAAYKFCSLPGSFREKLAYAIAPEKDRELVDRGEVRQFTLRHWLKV
Sequence of Adrenergic β2 (P07550 whole entry): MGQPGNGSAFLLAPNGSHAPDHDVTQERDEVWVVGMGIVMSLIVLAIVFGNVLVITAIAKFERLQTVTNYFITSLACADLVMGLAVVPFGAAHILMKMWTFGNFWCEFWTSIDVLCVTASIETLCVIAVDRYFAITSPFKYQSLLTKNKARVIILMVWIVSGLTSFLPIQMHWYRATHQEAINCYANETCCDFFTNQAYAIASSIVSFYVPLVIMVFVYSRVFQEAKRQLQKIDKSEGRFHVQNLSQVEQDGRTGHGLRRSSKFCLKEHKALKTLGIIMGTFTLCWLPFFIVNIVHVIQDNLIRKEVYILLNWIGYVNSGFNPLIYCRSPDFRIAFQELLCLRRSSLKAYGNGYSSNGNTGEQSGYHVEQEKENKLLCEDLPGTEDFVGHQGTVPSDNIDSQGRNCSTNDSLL
Sequence of Opiate κ (P41145 whole entry): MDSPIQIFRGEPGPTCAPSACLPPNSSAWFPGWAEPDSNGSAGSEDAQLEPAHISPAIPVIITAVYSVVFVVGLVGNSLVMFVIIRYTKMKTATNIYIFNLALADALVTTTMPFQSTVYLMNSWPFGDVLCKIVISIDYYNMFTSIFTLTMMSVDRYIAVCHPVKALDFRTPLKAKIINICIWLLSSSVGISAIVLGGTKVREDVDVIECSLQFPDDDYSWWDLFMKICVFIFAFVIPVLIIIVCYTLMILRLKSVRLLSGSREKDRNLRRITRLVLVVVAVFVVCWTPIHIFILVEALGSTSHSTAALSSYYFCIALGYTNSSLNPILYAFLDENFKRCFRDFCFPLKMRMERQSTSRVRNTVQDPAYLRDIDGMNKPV
Sequence of Adenosine A2A (P29274 whole entry): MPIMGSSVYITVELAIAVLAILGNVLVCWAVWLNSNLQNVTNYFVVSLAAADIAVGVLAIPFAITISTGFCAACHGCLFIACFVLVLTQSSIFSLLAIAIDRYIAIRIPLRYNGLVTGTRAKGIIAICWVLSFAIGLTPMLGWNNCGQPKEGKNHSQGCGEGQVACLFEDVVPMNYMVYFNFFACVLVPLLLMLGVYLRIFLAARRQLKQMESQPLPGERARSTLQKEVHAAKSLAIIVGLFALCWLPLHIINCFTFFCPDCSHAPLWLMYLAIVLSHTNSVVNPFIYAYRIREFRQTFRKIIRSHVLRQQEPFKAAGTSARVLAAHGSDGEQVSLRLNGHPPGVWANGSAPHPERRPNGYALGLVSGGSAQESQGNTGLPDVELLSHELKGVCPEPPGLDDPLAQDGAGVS

SMILES	inhibition at 30 µM (5-HT2B; [5])	inhibition at 30 µM (Adenosine A2A; [6])	inhibition at 30 µM (Adrenergic α1A; [7])	inhibition at 30 µM (Adrenergic β2; [8])	inhibition at 30 µM (Cannabinoid CB1; [9])	inhibition at 30 µM [1, 10]	inhibition at 30 µM (Histamine H1)	inhibition at 30 µM (Histamine H2; [11])	inhibition at 30 µM (Muscarinic M2; [12])	inhibition at 30 µM (Opiate κ; [13])	inhibition at 30 µM [2, 14]	inhibition at 30 µM [3, 15]	inhibition at 30 µM (Cyclooxygenase COX-1; [16])	inhibition at 30 µM [4, 17]	inhibition at 30 µM (Cyclooxygenase COX-1)	also measured
COc1cc(/C=C/C(=O)O[C@H]2C[C@@](O)(C(=O)O)C[C@H](O)[C@@H]2O)ccc1O [5-FQA, 5-O-feruloylquinic acid]	-5%	2%	10%	6%	-6%	7%	-22%	-5%	7%	-7%	6%	-1%	11%	2%		
O=C(/C=C/c1ccc(O)c(O)c1)O[C@H]1C[C@@](O)(C(=O)O)C[C@H](O)[C@@H]1O [5-CQA, 5-O-caffeoylquinic acid]	-16%	-7%	14%	1%	-6%	10%	-12%	0%	-1%	-3%	-10%	-3%	2%	8%		
COc1cc(/C=C/C(=O)O)ccc1O [FA, ferulic acid]															5%	inhibition at 30 µM (5-HT2B): 5%; inhibition at 30 µM (Adenosine A2A): -14%; inhibition at 30 µM (Adrenergic α1A): -2%; inhibition at 30 µM (Adrenergic β2): 2%; inhibition at 30 µM (Cannabinoid CB1): -15%; inhibition at 30 µM [1]: 1%; inhibition at 30 µM (Histamine H2): -5%; inhibition at 30 µM (Muscarinic M2): 17%; inhibition at 30 µM (Opiate κ): 3%; inhibition at 30 µM [2]: 0%; inhibition at 30 µM [3]: 2%; inhibition at 30 µM [4]: -2%
O=C(O)/C=C/c1ccc(O)c(O)c1 [CA, caffeic acid]															6%	% Inhibition (5-HT2B; 30 µM, 5-HT2B): 1%; % Inhibition (Adenosine A2A; 30 µM, Adenosine A2A): 4%; % Inhibition (Adrenergic α1A; 30 µM, Adrenergic α1A): 10%; % Inhibition (Adrenergic β2; 30 µM, Adrenergic β2): 2%; % Inhibition (Cannabinoid CB1; 30 µM, Cannabinoid CB1): −9%; % Inhibition ([1]; 30 µM, Cholecystokinin CCK1 (CCKA)): 12%; % Inhibition (Histamine H1; 30 µM): −11%; % Inhibition (Histamine H2; 30 µM, Histamine H2): −6%; % Inhibition (Muscarinic M2; 30 µM, Muscarinic M2): 23%; % Inhibition (Opiate κ; 30 µM, Opiate κ): 3%; % Inhibition ([2]; 30 µM, Transporter, Dopamine (DAT)): 2%; % Inhibition ([3]; 30 µM, Transporter, Norepinephrine (NET)): 0%; % Inhibition ([4]; 30 µM, Peptidase, CTSG (Cathepsin G)): 1%
